Read-outs that look alike come from different tables or passages of the source.
What was measured:
Full-length human PKCθ = biological target: T1, Full-length human PKCθ (Homo sapiens, UniProt Q04759); assay: Measurement of human PKCθ enzyme inhibition activity (HTRF KinEASE S1 kit); format: biochemical
T1 construct: Full-length human PKCθ (Carna Biosciences, final 31 ng/mL); purchased Carna Biosciences
Protocol: Test Method 1: Measurement of Human PKCθ Enzyme Inhibition Activity
The test was carried out using a HTRF® KinEASE™ S1 kit (CIS bio). […] Then, 3 μL of an ATP liquid (final 30 μM) was dispensed therein to carry out an enzyme reaction at room temperature for 1 hour.
Ex represents Compound No. of Examples as described later.

Cytochrome P450 (CYP3A4) = biological target: T2, Cytochrome P450 (CYP3A4) (Homo sapiens, UniProt P08684); assay: Measurement of cytochrome P450 (CYP3A4) enzyme inhibition activity in human liver microsome (inhibition tests I and II, midazolam substrate); format: in vitro ADME; conditions: for I (%) Remaining Rate I: inhibition test I: 5 μM test compound, 2 μM midazolam, human liver microsome, 37° C. 20 minutes, no preincubation; for II (%) Remaining Rate II: inhibition test II: 5 μM test compound preincubated 30 minutes with human liver microsome and NADPH, then 2 μM midazolam 20 minutes, relative to test I
T2 construct: human liver microsome (0.1 mg protein/mL); from tissue; host or cells: human liver microsomes
Protocol: Test Method 3: Measurement of Cytochrome P450 (CYP3A4) Enzyme Inhibition Activity i) Inhibition Test I (Calculation of Remaining Rate I)
Using a 96-well plate, 2 μM of a substrate (midazolam), 5 μM of a test compound, and human liver microsome (0.1 mg protein/mL) were incubated at 37° C. for 20 minutes in a total amount of 150 μL of a 100 mM phosphate buffer (pH 7.4) containing 0.1 mM EDTA and 1 mM NADPH. Then, the reaction was stopped by adding 130 μl of an aqueous solution containing 80% acetonitrile. Thereafter, the samples were analyzed by LC/MS/MS, and the remaining rates I were calculated using the following equation 1.
Remaining Rate I(%)=Ai,I/Ao,I×100 (Equation 1)
Ai, I=Amount of produced metabolite after reaction in the presence of the test compound in the inhibition test I Ao, I=Amount of produced metabolite after reaction in the absence of the test compound in the inhibition test I ii) Inhibition Test II (Calculation of Remaining Rate II)
Using a 96-well plate, 5 μM of a test compound and human liver microsome (0.1 mg protein/mL) were incubated at 37° C. for 30 minutes in a total amount of 145 μL of a 100 mM phosphate buffer (pH=7.4) containing 0.1 mM EDTA and 1 mM NADPH. Then, 2 μM of midazolam as the substrate was added thereto at a total amount of 150 μL of and incubated at 37° C. for 20 minutes. After the incubation, the reaction was stopped by adding 130 μL of an aqueous solution containing 80% acetonitrile. Thereafter, the samples were analyzed by LC/MS/MS, and the remaining rate II was calculated using the following equation 2.
Remaining Rate II(%)=Ai,II/Ao,II/(Ai,I/Ao,I)×100 (Equation 2)
Ai, II=Amount of produced metabolite after reaction in the presence of the test compound in the inhibition test II […]=Amount of produced metabolite after reaction in the absence of the test compound in the inhibition test II […]
Ex represents No. of the Example Compounds as described below.

[1] = full-length human PKCθ, ATP 30 μM, HTRF, read-out: IC50 (nM), human PKCθ enzyme inhibition

T2 sequence (P08684 whole entry): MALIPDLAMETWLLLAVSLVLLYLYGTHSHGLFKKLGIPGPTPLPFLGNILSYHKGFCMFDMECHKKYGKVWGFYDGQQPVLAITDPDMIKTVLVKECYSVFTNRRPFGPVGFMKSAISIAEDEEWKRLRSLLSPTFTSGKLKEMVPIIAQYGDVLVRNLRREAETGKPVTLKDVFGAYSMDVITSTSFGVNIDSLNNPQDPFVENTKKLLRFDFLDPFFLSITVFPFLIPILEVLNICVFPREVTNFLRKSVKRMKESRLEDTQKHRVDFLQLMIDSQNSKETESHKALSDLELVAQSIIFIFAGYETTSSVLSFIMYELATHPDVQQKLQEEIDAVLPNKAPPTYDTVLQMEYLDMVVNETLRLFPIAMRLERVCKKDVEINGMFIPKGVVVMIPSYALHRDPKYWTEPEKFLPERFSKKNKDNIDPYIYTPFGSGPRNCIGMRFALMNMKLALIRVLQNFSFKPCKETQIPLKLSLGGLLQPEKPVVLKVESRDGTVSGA
T1 sequence (Q04759 whole entry): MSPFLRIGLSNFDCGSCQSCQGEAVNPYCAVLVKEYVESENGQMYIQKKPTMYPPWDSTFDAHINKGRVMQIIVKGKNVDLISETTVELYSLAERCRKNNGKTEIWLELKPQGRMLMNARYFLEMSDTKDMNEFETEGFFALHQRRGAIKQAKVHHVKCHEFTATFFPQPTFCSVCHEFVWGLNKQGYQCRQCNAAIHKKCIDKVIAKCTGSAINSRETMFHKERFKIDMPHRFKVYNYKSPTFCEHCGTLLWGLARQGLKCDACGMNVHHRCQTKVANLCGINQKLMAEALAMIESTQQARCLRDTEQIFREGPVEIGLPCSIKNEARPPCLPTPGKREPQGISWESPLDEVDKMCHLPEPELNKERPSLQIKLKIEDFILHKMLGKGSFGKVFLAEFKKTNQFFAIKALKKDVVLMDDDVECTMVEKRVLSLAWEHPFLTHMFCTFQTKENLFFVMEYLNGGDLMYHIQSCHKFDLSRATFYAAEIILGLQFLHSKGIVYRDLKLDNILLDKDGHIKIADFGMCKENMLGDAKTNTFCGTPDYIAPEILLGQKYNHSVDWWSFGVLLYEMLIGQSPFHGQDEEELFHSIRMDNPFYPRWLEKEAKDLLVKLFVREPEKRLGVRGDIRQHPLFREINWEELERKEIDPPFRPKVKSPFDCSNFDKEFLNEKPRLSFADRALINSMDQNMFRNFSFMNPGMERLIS

| Compound | IC50 (Full-length human PKCθ; [1]) [nM] | I (%) Remaining Rate I (Cytochrome P450 (CYP3A4)) [%] | II (%) Remaining Rate II (Cytochrome P450 (CYP3A4)) [%] | IC50 (Full-length human PKCθ) [nM] |
| --- | --- | --- | --- | --- |
| N#Cc1cnc(NCc2ccccc2OC(F)(F)F)nc1NC[C@]12CC3C[C@H](C1)[C@H](N[C@H]1CC[C@H](O)CC1)[C@@H](C3)C2 (relative stereo) [Example 41, rel-4-[({(1R,3S,4R,5R)-4-[(trans-4-hydroxycyclohexyl)amino]adamantan-1-yl}methyl)amino]-2-{[2-(trifluoromethoxy)benzyl]amino}pyrimidine-5-carbonitrile] | 14 | 80 | 102 |  |
| COc1ccccc1CNc1ncc(C#N)c(NC[C@]23CC4C[C@H](C2)[C@@H](NCC[C@H](O)CO)[C@@H](C4)C3)n1 (relative stereo) [Example 195] | 3.3 | 88 | 82 |  |
| COc1ccccc1CNc1ncc(C#N)c(NC[C@]23CC4C[C@H](C2)[C@@H](N2CC(CO)(CO)C2)[C@@H](C4)C3)n1 (relative stereo) [Example 196] | 3.9 | 86 | 87 |  |
| N#Cc1cnc(NCc2ccccc2Cl)nc1NC[C@]12CC3C[C@H](C1)[C@@H](NC[C@H]1CC[C@H](O)CC1)[C@@H](C3)C2 (relative stereo) [Example 340] | 1.4 | 91 | 83 |  |
| C[C@]1(O)CC[C@H](CN[C@@H]2[C@@H]3CC4C[C@H]2C[C@@](CNc2nc(NCc5ccccc5OC(F)F)ncc2C#N)(C4)C3)CC1 (relative stereo) [Example 372] | 1.22 | 78 | 84 |  |
| N#Cc1cnc(NCc2ccccc2Cl)nc1NC[C@]12CC3C[C@H](C1)[C@@H](NC[C@H]1CC[C@@H](O)CC1)[C@@H](C3)C2 (relative stereo) [Example 401] | 0.65 | 84 | 89 |  |
| COc1ccccc1CNc1ncc(C#N)c(NC[C@]23CC4C[C@H](C2)[C@@H](N(C)CCCCO)[C@@H](C4)C3)n1 [Example 107] | 5.4 | 77 | 84 |  |
| CN([C@H]1CC[C@H](O)CC1)[C@@H]1[C@@H]2CC3C[C@H]1C[C@@](CNc1nc(NCc4ccccc4OC(F)(F)F)ncc1C#N)(C3)C2 [Example 115] | 3.5 | 75 | 90 |  |
| N#Cc1cnc(NCc2ccccc2Cl)nc1NC[C@]12CC3C[C@H](C1)[C@@H](NC1CCN(C(=O)CO)CC1)[C@@H](C3)C2 [Example 205] | 0.83 |  |  |  |
| N#Cc1cnc(NCc2ccccc2Cl)nc1NC[C@]12CC3C[C@H](C1)[C@@H](N1CC(O)C1)[C@@H](C3)C2 [Example 211] | 0.96 |  |  |  |
| N#Cc1cnc(NCc2ccccc2Cl)nc1NC[C@]12CC3C[C@H](C1)[C@@H](NCC1CCN(CCF)CC1)[C@@H](C3)C2 [Example 219] |  | 76 | 94 | 0.4 |
| N#Cc1cnc(NCc2ccccc2Cl)nc1NC[C@]12CC3C[C@H](C1)C(N1CCNCC1)[C@@H](C3)C2 (stereo partly shown) [Example 319] | 4 |  |  |  |
| N#Cc1cnc(NCc2ccccc2OC(F)(F)F)nc1NCCC(=O)N1CCCNCC1 [Example 387] | 77 |  |  |  |

More lines, main results first:

| IC50 (Full-length human PKCθ; [1]) [nM] | I (%) Remaining Rate I (Cytochrome P450 (CYP3A4)) [%] | II (%) Remaining Rate II (Cytochrome P450 (CYP3A4)) [%] | Compound | IC50 (Full-length human PKCθ) [nM] |
| --- | --- | --- | --- | --- |
| 0.44 | 76 | 99 | CSc1ccccc1CNc1ncc(C#N)c(NC[C@]23CC4C[C@H](C2)[C@@H](N[C@H]2CC[C@H](O)CC2)[C@@H](C4)C3)n1 (relative stereo) [Example 43, rel-4-[({(1R,3S,4R,5R)-4-[(trans-4-hydroxycyclohexyl)amino]adamantan-1-yl]methyl)amino}-2-{[2-(methylsulfanyl)benzyl]amino}pyrimidine-5-carbonitrile] |  |
| 0.28 | 95 | 85 | CSc1ccccc1CNc1ncc(C#N)c(NC[C@]23CC4C[C@H](C2)[C@@H](NCC[C@H](O)CO)[C@@H](C4)C3)n1 (relative stereo) [Example 200] |  |
| 0.48 | 89 | 84 | CSc1ncccc1CNc1ncc(C#N)c(NC[C@]23CC4C[C@H](C2)[C@@H](NC[C@H]2CC[C@H](O)CC2)[C@@H](C4)C3)n1 (relative stereo) [Example 344] |  |
| 0.36 | 83 | 89 | N#Cc1cnc(NCc2ccccc2Cl)nc1NC[C@]12CC3C[C@H](C1)[C@@H](NC1CCNCC1)[C@@H](C3)C2 [Example 169] |  |
| 0.065 | 75 | 88 | N#Cc1cnc(NCc2ccccc2OC(F)(F)F)nc1NC[C@]12CC3C[C@H](C1)[C@@H](N[C@H]1CC[C@@H](N)CC1)[C@@H](C3)C2 [Example 303] |  |
| 0.25 | 90 | 92 | N#Cc1cnc(NCc2ccccc2Cl)nc1NC[C@]12CC3C[C@H](C1)[C@@H](NCC1CCNCC1)[C@@H](C3)C2 [Example 321] |  |
